Experimental data reported in patent publication US20040122061A1, “Inhibitors of post-amadori advanced glycation end products” (BioStratum, Inc., priority 2002, published 2004).
Read-outs that look alike come from different tables or passages of the source.

How the values were obtained:
[1] = tested on: conversion of Amadori compounds to post Amadori advanced glycation endproducts (bovine serum albumin and ribonuclease A glycated by ribose); assay: Interrupted glycation: inhibition of post-Amadori AGE formation; format: biochemical; conditions: interrupted glycation with ribose, 37° C., pH 7.5; read-out: IC50 for inhibiting the conversion of Amadori compounds to post Amadori advanced glycation endproducts
Protocol: The effect of [2,4′]Bipyridinyl-3′-ol, 5-Hydroxymethyl-4-(1H-imidazol-2-yl)-2-methyl-pyridin-3-ol, and 4-(1H-Imidazol-2-yl)-pyridin-3-ol on post-Amadori AGE formation during interrupted glycation of bovine serum albumin and ribonuclease A by ribose was determined in comparison to pyridoxamine. Modification with ribose was done at 37° C. in 0.2 M phosphate buffer of pH 7.5 containing 0.02% sodium azide. The solutions were kept in capped tubes and opened only to remove timed aliquots that were immediately frozen for later carrying out the various analyses. “Interrupted glycation” experiments were carried out by first incubating protein with the ribose at 37° C. for 8 or 24 h, followed by immediate and extensive dialysis against frequent cold buffer changes at 4° C. The samples were then re-incubated by quickly warming to 37° C. in the absence of external ribose. Aliquots were taken and frozen at various intervals for later analysis. (See U.S. Pat. No. 5,985,857)
The interrupted glycation method for following post-Amadori kinetics of AGE formation allows for the rapid quantitative study of “late” stages of the glycation reaction. Importantly, this method allows for inhibition studies that are free of pathways of AGE formation that arise from glycoxidative products of free sugar or Schiff base (Namiki pathway). The experiments were designed to determine the half-maximal inhibitory concentration of these compounds (“IC50 values”) for inhibiting the conversion of Amadori compounds to post Amadori advanced glycation endproducts.

bovine serum albumin = target: T1, bovine serum albumin (Bos taurus, UniProt P02769); assay: Compound binding to plasma albumin (ultrafiltration, free compound), BSA; format: in vitro ADME; conditions: BSA 40 mg/ml; for fraction unbound at 8 μg/ml: compound 8 μg/ml; for Kd: read-out: Computed (1:1) Kd
T1 construct: from tissue; host or cells: plasma / serum (from the name; preparation not described)
T1 sequence (P02769 25-607): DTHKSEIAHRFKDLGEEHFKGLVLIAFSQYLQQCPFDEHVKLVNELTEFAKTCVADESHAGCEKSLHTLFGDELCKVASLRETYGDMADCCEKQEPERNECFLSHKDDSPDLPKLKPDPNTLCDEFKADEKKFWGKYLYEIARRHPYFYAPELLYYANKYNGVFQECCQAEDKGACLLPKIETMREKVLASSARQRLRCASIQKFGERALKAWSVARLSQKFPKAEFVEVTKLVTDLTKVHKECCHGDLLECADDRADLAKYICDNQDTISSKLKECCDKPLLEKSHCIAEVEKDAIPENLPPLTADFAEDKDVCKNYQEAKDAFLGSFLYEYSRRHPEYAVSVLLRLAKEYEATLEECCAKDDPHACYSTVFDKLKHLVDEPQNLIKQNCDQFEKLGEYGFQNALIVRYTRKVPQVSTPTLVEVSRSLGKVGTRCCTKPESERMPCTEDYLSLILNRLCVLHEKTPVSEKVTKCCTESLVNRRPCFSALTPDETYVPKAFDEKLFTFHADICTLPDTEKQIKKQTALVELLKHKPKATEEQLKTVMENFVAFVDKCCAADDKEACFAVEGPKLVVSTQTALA
Protocol: (§1) This study was done to measure the binding of compounds of the present invention to plasma albumin. Such binding can result in longer plasma retention times and enhanced therapeutic efficacy for the compounds. The proteins tested were bovine serum albumin, bovine (BSA) at 40 mg/ml and rat albumin at ˜13 mg/ml.
(§2) Spectrophotmetry: Two mL of protein solution in 0.1M phosphate buffer saline (PBS) at pH 7.4 was titrated with compound in 0.2 M phosphate buffer at pH 7.4. The protein concentration was prepared to have absorbance less than 1 at the observation wavelength range (250-500), and the total volume change during titration was controlled below 2%. The compound-protein binding detection was based on the shift of spectrum.
Free compound measurement: One ml of compound and protein mixture was incubated at 37° C. for about 30 min and loaded into Centricon YM-10 (10,000 MW cut-off, for BSA) or Microcon YC-3 (3,000 MW cut-off). The samples were centrifuged in a fixed-angle rotor at 6,000 rpm for about 6-8 min (Centricon) or at 9,000 rpm for about 15 min (Microcon) to allow about 10-20% of the volume to filter through. Free compound passes through the membrane while the free and complexed protein remains in the sample reservoir. The concentration of free compound in the filtrate is assumed to be the same as in the sample above the membrane. A fixed amount of filtrate aliquot was diluted to 0.6 ml with PBS at pH 7.4 (PBS was prepared using 1 tablet from Sigma dissolved in 200 ml deionized H2O) and measured by UV absorbance. To quantify the percentage of free compound, the same compound at the same concentration in PBS solution, as standard, was prepared in parallel through the same process, or a calibration curve was generated through the same process. 1 ml of PBS solution (as blank) and 1 ml of protein solution (as control) also went through the same process and measurement.
Calculations: The method used to determine the percentage of free compound was either (a) % Free compound=(Asample−Acontrol)/Astandard×100, where, A is absorbance at selected wavelength; or (b) Obtaining free compound concentration of sample from calibration curve, and then divided by total concentration: Kd=[P][L]/[PL] (for 1:1 binding), using BSA MW=70,000.

[2] = tested on: streptozotocin (STZ)-diabetic rats; assay: Rat model of diabetic neuropathy (STZ-diabetic rats); format: in vivo; conditions: 50 mg/L in drinking water
Protocol: Our aim was to ascertain whether BST-4997 treatment could correct nerve dysfunction in streptozotocin (STZ)-diabetic rats. Animals (n=10) were made diabetic for 6 weeks (group D), following which they were treated for 2 weeks with BST-4997 (group DBST) given in the drinking water at a concentration of 50 mg/L. They were compared to control non-diabetic rats (groups C). Statistical significance is reported according to the legend: **, *** p<0.01, p<0.001 versus untreated controls; ### p<0.001 treatment effect versus untreated diabetics.
FIG. 13 provides a graphical representation of the effect of BST-4997 on restoring nerve conduction velocity (NCV) in the STZ rats. Motor NCV was tested between the sciatic notch and knee for the nerve branch to tibialis anterior muscle, as described in Cameron et al., Q. J. Exp. Physiol. 74: 917-926 (1989); and Cameron et al., Exp. Neurol. 92: 757-761 (1986). Saphenous sensory NCV was measured between the groin and ankle.
FIG. 14 provides a graphical representation of the effect of BST-4997 on restoring endoneurial perfusion in the STZ rats. Vascular blood flow, pressure, and conductance were measured.
FIG. 15 provides a graphical representation of the effect of BST-4997 on improving pain related measures in the STZ rats. Responses to tactile allodynia, pressure, and thermal stimuli were measured.

rat albumin = target: T2, rat albumin (Rattus norvegicus, UniProt P02770); assay: Compound binding to plasma albumin (ultrafiltration, free compound), rat albumin; format: in vitro ADME; conditions: compound 10 μg/ml, rat albumin ~13 mg/ml
T2 construct: from tissue; host or cells: plasma (from 'plasma albumin'; preparation not described)
T2 sequence (P02770 25-608): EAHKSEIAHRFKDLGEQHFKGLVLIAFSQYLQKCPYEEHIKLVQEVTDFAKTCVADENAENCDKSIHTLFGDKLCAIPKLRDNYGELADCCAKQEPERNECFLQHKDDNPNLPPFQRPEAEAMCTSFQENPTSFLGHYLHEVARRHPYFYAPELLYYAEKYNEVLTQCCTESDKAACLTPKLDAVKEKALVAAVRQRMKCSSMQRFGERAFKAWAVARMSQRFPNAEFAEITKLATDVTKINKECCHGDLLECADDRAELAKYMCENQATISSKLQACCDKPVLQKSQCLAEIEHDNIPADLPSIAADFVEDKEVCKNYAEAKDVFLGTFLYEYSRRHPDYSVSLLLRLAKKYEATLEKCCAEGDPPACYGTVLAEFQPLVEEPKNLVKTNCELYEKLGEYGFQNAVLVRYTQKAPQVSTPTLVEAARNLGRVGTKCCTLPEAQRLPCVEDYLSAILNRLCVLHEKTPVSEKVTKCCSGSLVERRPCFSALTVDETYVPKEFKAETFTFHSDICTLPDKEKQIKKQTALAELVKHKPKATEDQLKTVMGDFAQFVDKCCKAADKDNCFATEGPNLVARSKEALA
Protocol: as §1, §2
Free compound measurement: One ml of compound and protein mixture was incubated at 37° C. for about 30 min and loaded into Centricon YM-10 (10,000 MW cut-off, for BSA) or Microcon YC-3 (3,000 MW cut-off). […] A fixed amount of filtrate aliquot was diluted to 0.6 ml with PBS at pH 7.4 (PBS was prepared using 1 tablet from Sigma dissolved in 200 ml deionized H2O) and measured by UV absorbance. To quantify the percentage of free compound, the same compound at the same concentration in PBS solution, as standard, was prepared in parallel through the same process, or a calibration curve was generated through the same process. […]

[3] = bovine, bovine serum albumin solution (40 mg/ml), pH 7.4, 37° C.
[4] = STZ rats diabetic 6 weeks, then 2 weeks treatment, FIG. 13
[5] = STZ rats, 2 weeks treatment, FIG. 14
[6] = STZ rats, 2 weeks treatment, FIG. 15

`Cc1ncc(CO)c(CN)c1O` [pyridoxamine, reference compound] was tested, and the IC50 [1] was roughly 3000 µM.

`Oc1cnccc1-c1ncc[nH]1` [BST4996, 4-(1H-Imidazol-2-yl)-pyridin-3-ol] was tested, and the IC50 [1] was 200 to 300 µM and the fraction unbound at 8 μg/ml (bovine serum albumin; [3]) was 0.53.

Work on `Oc1cnccc1-c1ccccn1` [BST4944, [2,4′]Bipyridinyl-3′-ol] yielded an IC50 [1] of 2000 µM and a fraction unbound at 8 μg/ml (bovine serum albumin; [3]) of 0.34.

`Cc1ncc(CO)c(-c2ncc[nH]2)c1O` [BST4997, 5-Hydroxymethyl-4-(1H-imidazol-2-yl)-2-methyl-pyridin-3-ol] was tested, and the “diabetes-associated defect in motor nerve conduction velocity (NCV)” value [2, 4] was “dramatically reduced”, the “diabetes-associated defect in sensory nerve conduction velocity (NCV)” value [2, 4] was “dramatically reduced” and the “correction of nerve dysfunction” value ([2]; STZ rats, 2 weeks treatment) was “effective in correcting nerve dysfunction”. The “diabetes-associated defect in endoneurial blood flow” value [2, 5] was “dramatically reduced”, the “diabetes-associated defect in endoneurial vascular conductance” value [2, 5] was “dramatically reduced” and the “diabetes-associated defect in tactile allodynia” value [2, 6] was “dramatically reduced”. For the same compound, the “diabetes-associated defect in thermal hyperalgesia (latency for foot withdrawal from a noxious heat stimulus)” value [2, 6] was “dramatically reduced”, the IC50 [1] was 200 to 300 µM and the fraction unbound at 5 μg/ml (bovine serum albumin; bovine, bovine serum albumin solution (40 mg/ml), compound 5 μg/ml, pH 7.4, 37° C., read-out: % Free BST4997) was 0.31. It also gave a fraction unbound at 10 μg/ml (bovine serum albumin; bovine, bovine serum albumin solution (40 mg/ml), compound 10 μg/ml, pH 7.4, 37° C., read-out: % Free BST4997) of 0.3, a fraction unbound at 20 μg/ml (bovine serum albumin; bovine, bovine serum albumin solution (40 mg/ml), compound 20 μg/ml, pH 7.4, 37° C., read-out: % Free BST4997) of 0.38 and a Kd (bovine serum albumin; compound 5 μg/ml) of 260 µM. The Kd (bovine serum albumin; compound 10 μg/ml) was 240 µM, the Kd (bovine serum albumin; compound 20 μg/ml) was 320 µM and the Kd (rat albumin; read-out: Computed (1:1) Kd) was 350 µM. It also gave a fraction unbound at 10 μg/ml (rat albumin; rat albumin solution (~13 mg/ml), pH 7.4, 37° C., read-out: % Free BST4997) of 0.67.
